The results in this text go back to patent publication US20090030039A1, “Piperidine Derivatives as Cxcr3 Receptor Antagonists” (priority 2006, published 2009).

The target of data set [1] is T1, human CXCR3 (Homo sapiens, UniProt P49682).
T1 construct: expressed in transfected cells; host or cells: CHO cells (membrane preparation)
T1 sequence (P49682 1-368): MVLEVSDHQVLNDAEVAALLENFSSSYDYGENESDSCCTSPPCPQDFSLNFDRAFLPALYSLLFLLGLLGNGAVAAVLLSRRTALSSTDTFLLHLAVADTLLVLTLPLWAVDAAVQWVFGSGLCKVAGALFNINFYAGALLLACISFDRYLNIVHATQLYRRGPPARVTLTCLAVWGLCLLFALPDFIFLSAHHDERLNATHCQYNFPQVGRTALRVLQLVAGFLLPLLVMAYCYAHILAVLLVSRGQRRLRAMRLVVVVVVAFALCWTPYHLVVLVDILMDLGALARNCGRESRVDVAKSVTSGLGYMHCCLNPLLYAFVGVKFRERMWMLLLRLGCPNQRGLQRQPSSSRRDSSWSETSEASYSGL
Briefly: [35S]GTPγS exchange assay, CXCR3 receptor inhibition (hI-TAC-induced GTPγS-binding). The note with it: -log IC50 (molar) inhibiting 50% of specific I-TAC-induced GTPγS-binding, membranes of human CXCR3-transfected CHO cells; for IC50: read-out: pIC50 (converted). The data set is classed as biochemical. A general note: GTPγS is a poorly hydrolysed GTP analogue; its binding reports G protein activation.

Molecules are shown by their SMILES. Where a name gives a salt, the structure may show the parent alone.

In general, melting point refers to the temperature of the solid-liquid transition. `Cl.Nc1cc(CN2CCC(C3(c4ccccc4)CCC(=O)NC3=O)CC2)ccc1Cl` (stereo not drawn) had a melting point of 287.8 °C.
Consider `O=C1CCC(c2ccccc2)(C2CCN(Cc3ccc(Cl)c([N+](=O)[O-])c3)CC2)C(=O)N1` (stereo not drawn) (as salt: HCl) [Compound 12], for which the melting point lay in the range of 244.4 to 248.3 °C.
`O=C1CCC(c2ccccc2)(C2CCN(Cc3ccc(Cl)c(F)c3)CC2)C(=O)N1` (single isomer, unassigned) [Compound 40] gave a melting point of 192 to 194.3 °C. In data set [1], the IC50 is 398 nM.
In general, pIC50 refers to the IC50 on a negative log10 scale, so that one unit is a factor of ten. A lower pIC50 goes with a high IC50. In turn, `O=C1CCC(c2ccccc2)(C2CCN(Cc3ccc(Cl)c(F)c3)CC2)C(=O)N1` (single isomer, unassigned) [Compound 41] yielded a melting point of 192.3 to 196.3 °C. In addition, the pIC50 in data set [1] is reported as 6.4.
In the case of `Cl.O=C1CCC(c2ccc(F)cc2F)(C2CCN(Cc3ccc(Br)cc3)CC2)C(=O)N1` (single isomer, unassigned) [Compound 195], the melting point is 273.9 to 278.3 °C. Also, the IC50 in data set [1] was 316 nM.
As to `Cl.O=C1CCC(c2ccc(F)cc2F)(C2CCN(Cc3ccc(Cl)c(F)c3)CC2)C(=O)N1` (single isomer, unassigned) [Compound 203], the melting point lay in the range of 282 to 285.9 °C. Besides, in data set [1], the IC50 was 79.4 nM.
The like results for `Cl.O=C1CCC(c2ccc(F)cc2F)(C2CCN(Cc3ccc(Cl)c(F)c3)CC2)C(=O)N1` (single isomer, unassigned) [Compound 204] were, in that order, 282 to 283.8 °C and 251 nM.
As to `CN1C(=O)CCC(c2ccccc2)(C2CCN(Cc3ccc(Br)cc3)CC2)C1=O` (stereo not drawn) [Compound 125], the melting point lay in the range of 298.1 to 303.1 °C. Besides, in data set [1], the pIC50 is recorded as 5.6.
Turning to `O=C1CCC(c2ccc(F)cc2F)(C2CCN(Cc3ccc(Cl)c(Cl)c3)CC2)C(=O)N1` (stereo not drawn) [Compound 201], in data set [1], the IC50 was 398 nM.
With `O=C1CCC(c2ccc(F)cc2F)(C2CCN(Cc3ccc(OC(F)F)cc3)CC2)C(=O)N1` (stereo not drawn) [Compound 205], in data set [1], the IC50 was 631 nM.
In the case of `O=C1CCC(c2ccc(F)cc2F)(C2CCN(Cc3cc4cc(Br)ccc4o3)CC2)C(=O)N1` (stereo not drawn) [Compound 206], in data set [1], the IC50 is 1260 nM.
Still for that read-out and setting: the value for `O=C1CCC(c2ccc(F)cc2F)(C2CCN(Cc3ccc4nonc4c3)CC2)C(=O)N1` (stereo not drawn) [Compound 207] was 398 nM.
As to `CC(c1ccc(Br)cc1)N1CCC(C2(c3ccc(F)cc3F)CCC(=O)NC2=O)CC1` (stereo not drawn) [Compound 208], in data set [1], the IC50 is 158 nM.
On to `CC1CC(=O)NC(=O)C1(c1ccccc1)C1CCN(Cc2ccc(Br)cc2)CC1` (stereo not drawn) [Compound 209], for which the IC50 in data set [1] is 501 nM.
For the compound `CC(=O)N1CC(c2ccccc2)(C2CCN(Cc3ccc(Br)cc3)CC2)CCC1=O` (stereo not drawn) [Compound 210], the IC50 in data set [1] is 1260 nM.
